In patent US6653455B1, “Crystallization of doxorubicin hydrochloride” (Mercian Corporation, priority 1998, dated 2003) one finds Hygroscopicity and Average particle diameter data, which are given here for 25 molecules.

Counter-ions that a name gives are not always drawn. A value given as a limit tells only on which side of the number the result lay.

The first data set in a line: Hygroscopicity, cup method (weight change). The note with it: weight-increasing rate, 25° C., 50 to 60% RH, 15 minutes; crystals dried at 40° C. under vacuum; hydrochloride. Format: physicochemical. On the procedure: Determined by the following cup method. To be specific, about 15 to 20 mg of the sample was put in a cylindrical cup having a diameter of 6 mm and a depth of 6 mm and left standing at a fixed temperature (25° C.) and relative humidity (50 to 60% RH) for 15 minutes to measure a weight change, whereby the hygroscopicity was evaluated.
In the following respective examples, a weight-increasing rate of 0.40% or more is shown by an evaluation criterion that the hygroscopicity is large (−); a weight-increasing rate of 0.20% or more and less than 0.40% is shown by an evaluation criterion that the hygroscopicity is ;intermediate (±); and a weight-increasing rate of less than 0.20% is shown by an evaluation criterion that the hygroscopicity is small: (+).
As to `COc1cccc2c1C(=O)c1c(O)c3c(c(O)c1C2=O)C[C@@](O)(C(=O)CO)C[C@@H]3O[C@H]1C[C@H](N)[C@H](O)[C@H](C)O1` [Example 13, doxorubicin hydrochloride], the Hygroscopicity entry was “± (a weight-increasing rate of 0.20% or more and less than 0.40% is shown by an evaluation criterion that the hygroscopicity is ;intermediate (±))”. The same measure, in the same setting: in the case of `COc1cccc2c1C(=O)c1c(O)c3c(c(O)c1C2=O)C[C@@](O)(C(=O)CO)C[C@@H]3O[C@H]1C[C@H](N)[C@H](O)[C@H](C)O1` [Example 44, doxorubicin hydrochloride] it was “+ (a weight-increasing rate of less than 0.20% is shown by an evaluation criterion that the hygroscopicity is small: (+))”; in that of `COc1cccc2c1C(=O)c1c(O)c3c(c(O)c1C2=O)C[C@@](O)(C(=O)CO)C[C@@H]3O[C@H]1C[C@H](N)[C@H](O)[C@H](C)O1` [Example 27, doxorubicin hydrochloride], “± (a weight-increasing rate of 0.20% or more and less than 0.40% is shown by an evaluation criterion that the hygroscopicity is ;intermediate (±))”.

With `COc1cccc2c1C(=O)c1c(O)c3c(c(O)c1C2=O)C[C@@](O)(C(=O)CO)C[C@@H]3O[C@H]1C[C@H](N)[C@H](O)[C@H](C)O1` [Example 41, doxorubicin hydrochloride], the Hygroscopicity result is reported as “+ (a weight-increasing rate of less than 0.20% is shown by an evaluation criterion that the hygroscopicity is small: (+))”.

Take `COc1cccc2c1C(=O)c1c(O)c3c(c(O)c1C2=O)C[C@@](O)(C(=O)CO)C[C@@H]3O[C@H]1C[C@H](N)[C@H](O)[C@H](C)O1` [Example 33, doxorubicin hydrochloride]: the Hygroscopicity entry is “± (a weight-increasing rate of 0.20% or more and less than 0.40% is shown by an evaluation criterion that the hygroscopicity is ;intermediate (±))”. Take `COc1cccc2c1C(=O)c1c(O)c3c(c(O)c1C2=O)C[C@@](O)(C(=O)CO)C[C@@H]3O[C@H]1C[C@H](N)[C@H](O)[C@H](C)O1` [Example 3, doxorubicin hydrochloride]: the Hygroscopicity entry was “− (a weight-increasing rate of 0.40% or more is shown by an evaluation criterion that the hygroscopicity is large (−))”. The same measure, in the same setting: the result for `COc1cccc2c1C(=O)c1c(O)c3c(c(O)c1C2=O)C[C@@](O)(C(=O)CO)C[C@@H]3O[C@H]1C[C@H](N)[C@H](O)[C@H](C)O1` [Example 29, doxorubicin hydrochloride] reads “+ (a weight-increasing rate of less than 0.20% is shown by an evaluation criterion that the hygroscopicity is small: (+))”; that for `COc1cccc2c1C(=O)c1c(O)c3c(c(O)c1C2=O)C[C@@](O)(C(=O)CO)C[C@@H]3O[C@H]1C[C@H](N)[C@H](O)[C@H](C)O1` [Example 39, doxorubicin hydrochloride], “+ (a weight-increasing rate of less than 0.20% is shown by an evaluation criterion that the hygroscopicity is small: (+))”. Same read-out and setting: the result for `COc1cccc2c1C(=O)c1c(O)c3c(c(O)c1C2=O)C[C@@](O)(C(=O)CO)C[C@@H]3O[C@H]1C[C@H](N)[C@H](O)[C@H](C)O1` [Example 37, doxorubicin hydrochloride] reads “+ (a weight-increasing rate of less than 0.20% is shown by an evaluation criterion that the hygroscopicity is small: (+))”.

Turning to `COc1cccc2c1C(=O)c1c(O)c3c(c(O)c1C2=O)C[C@@](O)(C(=O)CO)C[C@@H]3O[C@H]1C[C@H](N)[C@H](O)[C@H](C)O1` [Example 50, doxorubicin hydrochloride], the Hygroscopicity result was “+ (a weight-increasing rate of less than 0.20% is shown by an evaluation criterion that the hygroscopicity is small: (+))”. For the molecule `COc1cccc2c1C(=O)c1c(O)c3c(c(O)c1C2=O)C[C@@](O)(C(=O)CO)C[C@@H]3O[C@H]1C[C@H](N)[C@H](O)[C@H](C)O1` [Example 43, doxorubicin hydrochloride], the Hygroscopicity result is “+ (a weight-increasing rate of less than 0.20% is shown by an evaluation criterion that the hygroscopicity is small: (+))”. Same read-out and setting: in the case of `COc1cccc2c1C(=O)c1c(O)c3c(c(O)c1C2=O)C[C@@](O)(C(=O)CO)C[C@@H]3O[C@H]1C[C@H](N)[C@H](O)[C@H](C)O1` [Example 18, doxorubicin hydrochloride] it was “− (a weight-increasing rate of 0.40% or more is shown by an evaluation criterion that the hygroscopicity is large (−))”; in that of `COc1cccc2c1C(=O)c1c(O)c3c(c(O)c1C2=O)C[C@@](O)(C(=O)CO)C[C@@H]3O[C@H]1C[C@H](N)[C@H](O)[C@H](C)O1` [Example 52, doxorubicin hydrochloride], “+ (a weight-increasing rate of less than 0.20% is shown by an evaluation criterion that the hygroscopicity is small: (+))”. Consider `COc1cccc2c1C(=O)c1c(O)c3c(c(O)c1C2=O)C[C@@](O)(C(=O)CO)C[C@@H]3O[C@H]1C[C@H](N)[C@H](O)[C@H](C)O1` [Example 53, doxorubicin hydrochloride], for which the Hygroscopicity entry is listed as “+ (a weight-increasing rate of less than 0.20% is shown by an evaluation criterion that the hygroscopicity is small: (+))”. As for `COc1cccc2c1C(=O)c1c(O)c3c(c(O)c1C2=O)C[C@@](O)(C(=O)CO)C[C@@H]3O[C@H]1C[C@H](N)[C@H](O)[C@H](C)O1` [Example 15, doxorubicin hydrochloride], the Hygroscopicity result was “− (a weight-increasing rate of 0.40% or more is shown by an evaluation criterion that the hygroscopicity is large (−))”. For the molecule `COc1cccc2c1C(=O)c1c(O)c3c(c(O)c1C2=O)C[C@@](O)(C(=O)CO)C[C@@H]3O[C@H]1C[C@H](N)[C@H](O)[C@H](C)O1` [Example 36, doxorubicin hydrochloride], the Hygroscopicity result was “± (a weight-increasing rate of 0.20% or more and less than 0.40% is shown by an evaluation criterion that the hygroscopicity is ;intermediate (±))”.

For the molecule `COc1cccc2c1C(=O)c1c(O)c3c(c(O)c1C2=O)C[C@@](O)(C(=O)CO)C[C@@H]3O[C@H]1C[C@H](N)[C@H](O)[C@H](C)O1` [Example 17, doxorubicin hydrochloride], the Hygroscopicity result is reported as “− (a weight-increasing rate of 0.40% or more is shown by an evaluation criterion that the hygroscopicity is large (−))”. For `COc1cccc2c1C(=O)c1c(O)c3c(c(O)c1C2=O)C[C@@](O)(C(=O)CO)C[C@@H]3O[C@H]1C[C@H](N)[C@H](O)[C@H](C)O1` [Example 14, doxorubicin hydrochloride], the Hygroscopicity result is “± (a weight-increasing rate of 0.20% or more and less than 0.40% is shown by an evaluation criterion that the hygroscopicity is ;intermediate (±))”. Turning to `COc1cccc2c1C(=O)c1c(O)c3c(c(O)c1C2=O)C[C@@](O)(C(=O)CO)C[C@@H]3O[C@H]1C[C@H](N)[C@H](O)[C@H](C)O1` [Example 25, doxorubicin hydrochloride], the Hygroscopicity result is reported as “+ (a weight-increasing rate of less than 0.20% is shown by an evaluation criterion that the hygroscopicity is small: (+))”. Still for that read-out and setting: the result for `COc1cccc2c1C(=O)c1c(O)c3c(c(O)c1C2=O)C[C@@](O)(C(=O)CO)C[C@@H]3O[C@H]1C[C@H](N)[C@H](O)[C@H](C)O1` [Example 1, doxorubicin hydrochloride] reads “− (a weight-increasing rate of 0.40% or more is shown by an evaluation criterion that the hygroscopicity is large (−))”; that for `COc1cccc2c1C(=O)c1c(O)c3c(c(O)c1C2=O)C[C@@](O)(C(=O)CO)C[C@@H]3O[C@H]1C[C@H](N)[C@H](O)[C@H](C)O1` [Example 54, doxorubicin hydrochloride], “+ (a weight-increasing rate of less than 0.20% is shown by an evaluation criterion that the hygroscopicity is small: (+))”. On the same count and under the same terms, in the case of `COc1cccc2c1C(=O)c1c(O)c3c(c(O)c1C2=O)C[C@@](O)(C(=O)CO)C[C@@H]3O[C@H]1C[C@H](N)[C@H](O)[C@H](C)O1` [Example 8, doxorubicin hydrochloride] it was “− (a weight-increasing rate of 0.40% or more is shown by an evaluation criterion that the hygroscopicity is large (−))”.

Take `COc1cccc2c1C(=O)c1c(O)c3c(c(O)c1C2=O)C[C@@](O)(C(=O)CO)C[C@@H]3O[C@H]1C[C@H](N)[C@H](O)[C@H](C)O1` [Example 9, doxorubicin hydrochloride]: the Hygroscopicity entry is given as “− (a weight-increasing rate of 0.40% or more is shown by an evaluation criterion that the hygroscopicity is large (−))”. With `COc1cccc2c1C(=O)c1c(O)c3c(c(O)c1C2=O)C[C@@](O)(C(=O)CO)C[C@@H]3O[C@H]1C[C@H](N)[C@H](O)[C@H](C)O1` [Example 31, doxorubicin hydrochloride], the Hygroscopicity result is on record as “+ (a weight-increasing rate of less than 0.20% is shown by an evaluation criterion that the hygroscopicity is small: (+))”. As to `COc1cccc2c1C(=O)c1c(O)c3c(c(O)c1C2=O)C[C@@](O)(C(=O)CO)C[C@@H]3O[C@H]1C[C@H](N)[C@H](O)[C@H](C)O1` [Example 26, doxorubicin hydrochloride], the Hygroscopicity entry is recorded as “+ (a weight-increasing rate of less than 0.20% is shown by an evaluation criterion that the hygroscopicity is small: (+))”.

Another data set can be described thus: Average particle diameter, microscopic method (Heywood circle-corresponding diameter). Type of data set: physicochemical. The settings on record: 10 typical crystals on photograph, hydrochloride. The source says: The average particle diameter is shown by a diameter of a circle having the same area as an injected area of the particle, a so-called Heywood diameter (circle-corresponding diameter) according to a microscopic method (injected image). A small amount of the crystals was put on a slide glass, and 1 to 2 drops of a hydrophilic surfactant (sesquioleic acid sorbitan) were fallen thereon to disperse them. It was photographed by means of a polarization microscope (photographing lens: 3.3 magnifications, objective lens: 20 magnifications) equipped with a photographing device. Optional 10 pieces of the typical crystals were selected on the photograph to measure a long diameter and a short diameter thereof An (projected) area of the particle was shown by long diameter×short diameter, and the particle diameter was shown by a diameter of a circle having the same area as that obtained above.
`COc1cccc2c1C(=O)c1c(O)c3c(c(O)c1C2=O)C[C@@](O)(C(=O)CO)C[C@@H]3O[C@H]1C[C@H](N)[C@H](O)[C@H](C)O1` [Example 13, doxorubicin hydrochloride] returned an Average particle diameter of less than 4 μm. Same read-out and setting: in the case of `COc1cccc2c1C(=O)c1c(O)c3c(c(O)c1C2=O)C[C@@](O)(C(=O)CO)C[C@@H]3O[C@H]1C[C@H](N)[C@H](O)[C@H](C)O1` [Example 44, doxorubicin hydrochloride] it was 28 μm; in that of `COc1cccc2c1C(=O)c1c(O)c3c(c(O)c1C2=O)C[C@@](O)(C(=O)CO)C[C@@H]3O[C@H]1C[C@H](N)[C@H](O)[C@H](C)O1` [Example 33, doxorubicin hydrochloride], 25 μm.
